Key:
[1] = test system: P388/ADR cell lines (overexpress multidrug resistance pump MDR-1); test: Multidrug resistant cell assay: P388/ADR cell viability (ATP-lite); assay type: cell-based; details: Mus musculus, P388/ADR cells overexpressing MDR-1 (Pgp-1), 72 hours
Description: Cytotoxicity of compounds in multidrug resistant cells can be determined by administering compounds to cell lines that overexpress the multidrug resistance pump MDR-1 and determining the viability of the cell lines. P388/ADR cell lines are known to overexpress the multidrug resistance pump MDR-1 (also known as P-glycoprotein-1; Pgp-1).
P388/ADR cell lines are obtained from American Type Culture Collection (Manassas, Va.) and maintained in RPMI-1640 media supplemented with 10% FCS, 10 units/ml penicillin and streptomycin, 2 mM Glutamax and 1 mM sodium pyruvate (Invitrogen Corporation, Carlsbad, Calif.). For compound testing, cells are plated in 96 well dishes at a concentration of 1.5×10^4 cells/well. Cells are allowed to adhere to the plate overnight and then incubated with compounds at final concentrations ranging from 0.13 nM to 10 uM for 72 hours. Cell viability is then assessed using the ATP-lite reagent (Perkin Elmer, Foster City, Calif.). Plates are read on a Wallac Topcount luminescence reader (Perkin Elmer, Foster City, Calif.) and the results graphed in Prism software (Graphpad Software, Inc., San Diego, Calif.). Non-linear regression with variable slope analysis is performed to obtain IC50 concentration values.

[2] = test system: P388 murine leukemia cell line; test: Identification of cytotoxic agents: P388 cell viability (ATP-Lite); assay type: cell-based; details: Mus musculus; P388 cells, 72 hours, intracellular ATP (ATP-Lite), concentration required to inhibit growth by 50%
Description: A P388 murine leukemia cell line was obtained from NCI, Frederick, Md. P388 cells were cultured in RPMI-1640 supplemented with 10% fetal bovine serum, 2 mM Glutamax, 1 mM sodium pyruvate, 0.1 mM non-essential amino acids and 10 mM HEPES. Cells were grown at 37° C. in a humidified 5% CO2 atmosphere. Exponentially growing P388 cells were plated at 5,000 cells/well in a 96-well flat-bottomed microtiter plate (Corning, Costar #3595). […] Cellular viability was determined 72 hours later by measuring intracellular ATP with ATP-Lite assay system. The effect of compounds on cell viability was calculated by comparing the ATP levels of cells exposed to test compound with those of cells exposed to DMSO. A semi-log plot of relative ATP levels versus compound concentration was used to calculate the compound concentration required to inhibit growth by 50% (IC50). Data was analyzed by Prism software (GraphPad; San Diego, Calif.) by fitting it to a sigmoidal dose response curve.

SMILES	IC50 [1] [nM]	IC50 [2] [nM]
COC(=O)c1cc(N(C)c2ccc(OC)cc2)nc(Cl)n1 [Example 2, Methyl 2-chloro-6-[(4-methoxyphenyl)(methyl)amino]pyrimidine-4-carboxylate]	–	9000
COc1ccc(N(C)c2cc(C)nc(N(C)C)n2)cc1 [Example 4, N^4-(4-Methoxyphenyl)-N^2,N^2,N^4,6-tetramethylpyrimidine-2,4-diamine]	1100	1060
COc1ccc(N(C)c2ccnc(N(C)C)n2)cc1 [Example 5, N^4-(4-Methoxyphenyl)-N^2,N^2,N^4-trimethylpyrimidine-2,4-diamine]	6200	7900
COc1ccc(N(C)c2ccnc(C#N)n2)cc1 [Example 6, 4-[(4-Methoxyphenyl)(methyl)amino]pyrimidine-2-carbonitrile]	–	6800
COc1ccc(N(C)c2cc(Cl)nc(N)n2)cc1 [Example 8, 6-Chloro-N^4-(4-methoxyphenyl)-N^4-methylpyrimidine-2,4-diamine]	2400	1900
COc1ccc(N(C)c2cc(-c3ccccc3)nc(C)n2)cc1 [Example 10]	800	1600
COc1ccc(S(=O)(=O)Nc2cnc(C)nc2N(C)c2ccc(O)cc2)cc1 [Example 13, N-{4-[(4-hydroxyphenyl)-methylamino]-2-methyl-pyrimidin-5-yl)-4-methyoxy-benzenesulfonamide]	7400	1400

Continued by falling IC50 [1], values first:

IC50 [1] [nM]	SMILES	IC50 [2] [nM]
3900	COc1ccc(N(C)c2cc(C)nc(C#N)n2)cc1 [Example 7, 4-[(4-Methoxyphenyl)(methyl)amino]-6-methylpyrimidine-2-carbonitrile]	2500
3100	COc1ccc(N(C)c2ccnc(CN)n2)cc1 [Example 9, 2-(Aminomethyl)-N-(4-methoxyphenyl)-N-methylpyrimidin-4-amine]	1900
480	COc1ccc(N(C)c2ccnc(Cl)n2)cc1 [Example 1, (2-Chloro-pyrimidin-4-yl)-(4-methoxyphenyl)-methyl amine]	280
400	COc1ccc(N(C)c2cc(C)nc(C)n2)cc1 [Example 11, (2,6-dimethyl-pyrimidin-4-yl)-(4-methoxyphenyl)-methylamine]	310
78	CCOC(=O)c1cnc(SC)nc1N(C)c1ccc(OC)cc1 [Example 3, Ethyl 4-[(4-methoxyphenyl)(methyl)amino]-2-(methylthio)pyrimidine-5-carboxylate]	54
62	COc1ccc(N(C)c2nc(C)ncc2NS(=O)(=O)c2ccc(OC)cc2)cc1 [Example 12, 4-Methoxy-N-{4-[(4-methoxyphenyl)-methylamino]-2-methyl-pyrimidin-5-yl)-benzenesulfonamide]	57

— US20090280133A1, “PHARMACEUTICAL COMPOUNDS AS INHIBITORS OF CELL PROLIFERATION AND THE USE THEREOF” (Myriad Genetics, Incorporated, priority 2006, published 2009)
